Measured values as given in US7989420B2, “Smooth muscle relaxation” (New York Medical College, priority 2006, dated 2011).
Each block holds one molecule with its values, some of them ahead of it.

Experiments:
[1] = system: bovine airways; assay: Superoxide detection by lucigenin chemiluminescence in bovine airways; assay type: cell-based; conditions: 10 μM PDBu for 30 minutes
Experimental: Bovine bronchi were isolated from the same lungs used for pulmonary arteries, and studied for changes in protoporphyrin IX fluorescence and force under the same conditions as bovine pulmonary arteries described above. Superoxide was detected by the chemiluminescence produced by 5 μM lucigenin, which was detected by photon counting in a scintillation counter.

[2] = system: VASP serine-239 phosphorylation (cGMP-dependent protein kinase activation); assay: Western blot of VASP serine-239 phosphorylation in BPA; assay type: cell-based, bovine
Experimental: Rings from studies on contractile function were snap-frozen in liquid nitrogen, crushed and homogenized in lysis buffer (50 mM Tris-HCl, pH 8.0, 150 mM NaCl, 1 mM EDTA, 1% Triton X-100, 0.5% sodium deoxycholate, 0.1% sodium dodecyl sulfate, 1% of a protease inhibitor cocktail (Sigma) and 1% of a phosphatase inhibitor cocktail (Sigma). The protease inhibitor cocktail included 4-(2-aminoethyl)benzenesulfonyl floride hydrocholride, aprotinin, bestatin hydrochloride, N-(trans-epoxsuccinyl)-L-leucine-4-guanidinobutylamide, leupeptine hemisulfate, pepstatin and the phosphatase inhibitor cocktail included sodium orthovandate, sodium molybdate, sodium tartarate, and imidazole. Protein concentration was determined and 30 μg of protein samples were prepared in electrophoresis sample buffer containing 3% SDS and 3% β-mercaptoethanol and were separated using a 12% gel SDS-PAGE electrophoresis. Membranes were blocked for 1 h in TBST-5% milk and incubated overnight with phospho-VASP antibodies (diluted 1:1000). Membranes were exposed to a secondary horse radish peroxidase linked antibody and visualized with an ECL kit (Amersham). The membranes were subsequently exposed to X-OMAT autoradiography paper (Kodak). Membranes were stripped with TRIS-HCl buffer with 100 mM β-mercaptoethanol at 50° C. for 30 min. Membranes were subsequently washed, blocked and detected for total VASP. Each measurement of phosphorylated VASP was normalized to the total level of VASP, and data are reported as the percent of the levels of phosphorylated VASP seen in control arteries not exposed to agents which modulate the activity of sGC. Expression of sGC was detected with β-sGC subunit antibodies (diluted 1:2000), employing anti-rabbit secondary antibodies, and a protocol where membranes were blocked for 2 h. After analyzing for sGC protein expression, blots were stripped and re-probed for the detection of α-actin protein levels, which were used for normalization of data for statistical analysis based on protein loading.

[3] = system: bovine pulmonary arteries (BPA); assay: Isometric force generation to serotonin (5-HT) in organ cultured BPA rings; assay type: cell-based
Experimental: (§1) Organoid Culture Isolated Arteries for Heme Modulation. Intralobar BPA were isolated from slaughterhouse-derived bovine calf lungs, cleaned from surrounding tissue, and placed in 37° C. Dulbecco's Modified Eagle Medium (DMEM) containing 10% fetal bovine serum, penicillin, streptomycin, and fungizone (complete media). The arteries were isolated and cut into rings ˜2 mm in diameter and width, and the endothelium was removed by gentle rubbing of the lumen. Various compounds (i.e. ALA, FeSO4(Fe), deferoxamine) were added as described in the Results to various experimental groups, and these arteries were organ cultured overnight for 24 h in complete media in a 37° C.-5% CO2 incubator. Preliminary experiments on the time course for detection protoporphyrin IX accumulation and the effects of organ culture with doses of ALA in the 10-100 μM concentration range on contractile function, and minimizing the duration of organ culture were considerations that contributed to selecting the 24 h culture period used in this study.
Studies on the Regulation of Contractile Function. Following the overnight incubation, arterial rings were mounted on wire hooks attached to Grass (FT03) force displacement transducers for measurement of changes in isometric force. Tension was adjusted to 5 g, which is the optimal passive force for maximal contraction. Changes in force were recorded on a Grass polygraph (model 7), while vessels were incubated in 10-ml baths (Metro Scientific), which were individually thermostated (37° C.) in Krebs buffer gassed with 21% O2-5% CO2 (balance N2) in the absence of compounds used to modulate BPA protoporphyrin IX levels. Arteries were incubated for 1 h during which passive tension was adjusted to maintain 5 grams. The vessels were then depolarized with Krebs containing 123 mM KCl (High K^+) in place of NaCl, followed by re-equilibration with Krebs, prior to exposure to the experimental protocols. Following the wash with Krebs buffer after the High K^+ treatment, and a 30 min equilibration, BPA were then contracted with serotonin (5-HT) in a dose dependent manner to determine the response to this contractile agent. In some experiments, BPA were pretreated with the sGC inhibitor, 10 μM ODQ, for 15 min before contraction with serotonin. The effects of ODQ on relaxation to NO was determined by first contracting organ cultured control and ODQ-treated BPA with 1 μM 5-HT (after the initial exposure to increasing concentrations of 5-HT and a 30 min equilibration in Krebs).

[4] = biological target: T1, sGC (Bos taurus, UniProt P16068); assay: sGC activity in BPA homogenates (cGMP by ELISA); assay type: biochemical, bovine; parameters: Guanylate cyclase activity of homogenates of BPA was measured by enzyme immunoassay; from tissue; host or cells: BPA (pulmonary artery rings, organ cultured) homogenate; conditions: organ culture with 100 μM ALA and/or 100 μM Fe
T1 sequence (P16068 1-619): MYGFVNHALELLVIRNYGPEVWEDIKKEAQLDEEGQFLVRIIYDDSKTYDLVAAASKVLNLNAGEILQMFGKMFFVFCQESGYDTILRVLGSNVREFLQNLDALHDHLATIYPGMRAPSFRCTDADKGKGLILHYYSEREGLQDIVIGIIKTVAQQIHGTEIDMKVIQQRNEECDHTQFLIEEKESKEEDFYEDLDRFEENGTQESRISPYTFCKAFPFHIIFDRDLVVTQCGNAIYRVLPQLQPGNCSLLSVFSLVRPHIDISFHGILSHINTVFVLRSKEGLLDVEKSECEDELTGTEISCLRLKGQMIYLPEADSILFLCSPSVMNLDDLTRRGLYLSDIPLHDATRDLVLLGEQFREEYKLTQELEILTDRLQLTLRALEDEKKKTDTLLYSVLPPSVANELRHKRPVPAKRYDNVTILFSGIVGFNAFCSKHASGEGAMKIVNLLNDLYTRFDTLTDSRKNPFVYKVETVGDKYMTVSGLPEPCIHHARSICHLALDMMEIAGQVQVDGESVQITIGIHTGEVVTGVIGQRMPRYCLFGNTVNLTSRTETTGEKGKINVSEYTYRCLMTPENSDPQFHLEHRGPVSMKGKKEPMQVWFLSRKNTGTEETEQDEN
T1 sequence (P19687 1-691 partner): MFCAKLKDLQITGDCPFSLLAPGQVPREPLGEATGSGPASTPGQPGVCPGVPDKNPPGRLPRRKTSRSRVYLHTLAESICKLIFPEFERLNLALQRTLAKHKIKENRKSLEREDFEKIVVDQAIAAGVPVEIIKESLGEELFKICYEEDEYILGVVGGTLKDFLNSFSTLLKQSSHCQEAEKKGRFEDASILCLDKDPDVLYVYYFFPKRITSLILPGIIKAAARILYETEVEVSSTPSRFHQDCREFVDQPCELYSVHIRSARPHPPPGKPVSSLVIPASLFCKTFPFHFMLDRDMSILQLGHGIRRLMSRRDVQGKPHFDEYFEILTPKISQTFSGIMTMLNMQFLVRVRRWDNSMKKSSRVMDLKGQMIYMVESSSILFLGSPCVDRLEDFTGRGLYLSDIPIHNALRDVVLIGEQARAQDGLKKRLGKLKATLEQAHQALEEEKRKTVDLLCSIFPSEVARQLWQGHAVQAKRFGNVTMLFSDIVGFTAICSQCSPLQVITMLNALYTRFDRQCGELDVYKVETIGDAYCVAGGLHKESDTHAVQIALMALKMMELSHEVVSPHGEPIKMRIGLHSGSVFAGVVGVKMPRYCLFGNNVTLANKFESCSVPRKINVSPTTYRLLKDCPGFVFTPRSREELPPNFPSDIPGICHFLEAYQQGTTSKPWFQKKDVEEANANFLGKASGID
Experimental: Guanylate cyclase activity of homogenates of BPA was measured by enzyme immunoassay of the amounts of cGMP generated. Briefly, BPA were pulverized in liquid nitrogen and homogenized in MOPS buffer 1:3 wt to buffer ratio at 5° C. Reaction mixture (0.2 ml final volume) contained 20 mM MOPS-KOH (pH 7.4), 0.1 mM GTP, 2 mM MgCl2, 0.3 mM of the phosphodiesterase inhibitor 3-Isobutyl-1-methylxanthine, a GTP-regenerating system consisting of 10 mM phosphocreatine and 150 U/ml creatine phosphokinase, and 0.1 ml of homogenate (11, 15), and test agents, as indicated. Assays of sGC activity were initiated by the addition of BPA homogenate. Incubations were conducted for 10 min at 37° C., and they were terminated by the addition of 0.1 ml of preheated 12 mM EDTA. This was followed by boiling the assay mixtures for 10 min and a subsequent addition of 5% trichloroacetic acid. The precipitate was removed by centrifugation and the supernatant was washed three times with water-saturated diethyl ether. Residual ether was removed by incubation at 70° C. for 5 minutes, prior to measurement of cGMP by ELISA (Cayman), as described in the manual supplied by manufacturer of the ELISA kit.

[5] = system: bovine pulmonary arteries (BPA); assay: Protoporphyrin IX-associated tissue fluorescence in organ cultured BPA rings; assay type: cell-based
Experimental: as §1
Determination Changes in Protoporphyrin 1× and Heme Levels. Methods for the detection of protoporphyrin IX tissue fluorescence developed for the detection in cancerous cells with tissue depths of up to several millimeters (27) were adapted for detecting changes in the endogenous levels of protoporphyrin IX in BPA rings which were organ cultured with ALA. When excited with light in the regions of 505 and 540 nm, protoporphyrin IX has an emission in the region of 635 nm. […] Increases in protoporphyrin IX were measured using an excitation wavelength of 528±20 nm and emission of 620±40 nm in intact vessels. Ring segments of approximately equal size (˜4 mm in diameter and length) were centered on the bottom of the ˜6 mm diameter wells of a 96 well microplate with 200 μl of Krebs containing with 10 mM Hepes buffer (pH 7.4), and the fluorescence was measured from the bottom surface of the plate using BIOTEK fluorescent microplate reader (Model FLx800i). Data are reported in the arbitrary fluorescence units measured (AU), after subtraction of the low levels of background fluorescence observed in the absence of BPA.

[6] = system: bovine pulmonary arteries (BPA); assay: Heme content of BPA homogenates (QuantiChrom heme assay); assay type: cell-based; conditions: organ culture with 100 μM ALA and/or 100 μM Fe
Experimental: Heme was quantified in BPA homogenates using a QuantiChrom heme assay kit purchased from BioAssay Systems, and changes in absorbance were measured in a BIOTEK scanning microplate spectrophotometer. Briefly, segments were homogenized in 20 mM MOPS+sucrose buffer and diluted to approximately 5 mg protein/ml. Homogenates were centrifuged at 2000×g for 5 min, and 50 μl of supernatant obtained were assayed for their heme content based on the manufacture's instructions, employing measurements of changes in absorbance at 400 nm. The protein content of the supernatant was measured with Biorad protein assay kit, and tissue heme levels were reported as nanomoles/mg protein.

[7] = biological target: T1, sGC; conditions: reference (34), cited from earlier work
[8] = biological target: T2, sGC purified from bovine lungs (Bos taurus, UniProt P16068); conditions: reference (34); cited from earlier work
T2 construct: host or cells: bovine lung
T2 sequence (P16068 1-619): T1 sequence (P16068 1-619)
T2 sequence (P19687 1-691 partner): T1 sequence (P19687 1-691 partner)

[9] = 100 μM Fe in the presence of 100 μM ALA
[10] = organ culture with 100 μM Fe alone
[11] = 10 μM ODQ on BPA organ cultured with 100 μM ALA

Compound: CCCC(=O)O[C@@H]1[C@@H](C)[C@@]2(O)[C@@H](C=C(CO)C[C@]3(O)C(=O)C(C)=C[C@@H]23)[C@@H]2C(C)(C)[C@]12OC(=O)CCC [PDBu]
superoxide detected by 5 μM lucigenin chemiluminescence [1]: causes an increase in superoxide

Compound: NCCCNCCCCN(CCCN)/[N+]([O-])=N/O [spermine-NONOate]
VASP serine-239 phosphorylation ([2]; 10 μM spermine-NONOate): increased VASP phosphorylation
relaxation of organ cultured BPA ([3]; 10 μM spermine-NONOate): relaxed

BPA homogenate sGC activity [4]: did not alter sGC activity
Compound: O=S(=O)([O-])[O-].[Fe+2] [Fe, FeSO4]
protoporphyrin IX fluorescence [5, 9]: reversed the increase in protoporphyrin IX fluorescence
background fluorescence of BPA [5, 10]: did not alter the background fluorescence
BPA heme levels [6]: did not reach statistical significance
force generation by 5-HT [3, 9]: reversed the force attenuating effects
force generation by 5-HT [3, 10]: did not alter force generation

Compound: C=CC1=C(C)c2cc3[n-]c(cc4[n-]c(cc5nc(cc1n2)C(C)=C5C=C)c(C)c4CCC(=O)O)c(CCC(=O)O)c3C.[Fe+2] [heme]
Kd ([7]; read-out: binding affinity for the binding site on sGC): ~350 nM
effect on activation of sGC by protoporphyrin IX [8]: competitive inhibitor

Compound: C=CC1=C(C)c2cc3[nH]c(cc4nc(cc5[nH]c(cc1n2)c(C)c5CCC(=O)O)C(CCC(=O)O)=C4C)c(C)c3C=C [protoporphyrin IX]
binding affinity for the binding site on sGC [7]: low nanomolar concentration range

Compound: O=c1onc2cnc3ccccc3n12 [ODQ, 1H-[1,2,4]oxadiazolo[4,3-α]quinoxalin-1-one]
VASP serine-239 phosphorylation ([2]; 10 μM ODQ alone, appeared to decrease): did not reach statistical significance
increase in VASP serine-239 phosphorylation caused by ALA [2, 11]: did not significantly alter the increase in serine-239 VASP phosphorylation
increase in VASP serine-239 phosphorylation caused by the NO donor ([2]; 10 μM ODQ with 10 μM spermine-NONOate): attenuate the increase caused by the NO donor
force generation to 5-HT ([3]; 10 μM ODQ alone): did not alter
decrease in contraction to 5-HT caused by ALA [3, 11]: did not alter
relaxation to the NO donor ([3]; pretreatment with 10 μM ODQ, 10 μM spermine-NONOate): markedly attenuated relaxation
